ChEMBL document CHEMBL5465560, “Selectivity Literature for EUbOPEN Chemogenomic Library” (2024)

What was measured:
[1] = Selectivity interaction (Ambit KINOMEscan and KiNATiv profiling in Jurkat cells) EUB0000090b PKNB; conditions: Selectivity number of off-targets 9; Selectivity number of targets 456; Source Knowledge https://www.nature.com/articles/nchembio.2166; at 1 µM
[2] = target: T1, Dual specificity mitogen-activated protein kinase kinase 4 (Homo sapiens) (UniProt P45985); experiment: Selectivity interaction (ActivX KiNativ screen (kinase selectivity in THP-1 cell lysates)) EUB0000639a MAP2K4; format: subcellular; conditions: lysate, at 0.01 µM
T1 sequence (whole entry): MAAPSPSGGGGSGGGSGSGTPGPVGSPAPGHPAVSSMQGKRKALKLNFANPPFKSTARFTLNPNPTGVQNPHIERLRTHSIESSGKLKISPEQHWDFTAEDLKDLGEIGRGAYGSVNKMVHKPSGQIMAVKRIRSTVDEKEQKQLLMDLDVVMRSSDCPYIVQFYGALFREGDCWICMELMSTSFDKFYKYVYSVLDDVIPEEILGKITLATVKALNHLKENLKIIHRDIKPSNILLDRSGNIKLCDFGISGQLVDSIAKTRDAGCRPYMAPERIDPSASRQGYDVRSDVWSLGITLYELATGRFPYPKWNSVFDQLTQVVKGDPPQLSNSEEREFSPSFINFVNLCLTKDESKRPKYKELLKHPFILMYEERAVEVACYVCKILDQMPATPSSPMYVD

[3] = target: NT-3 growth factor receptor (Homo sapiens, UniProt Q16288); experiment: Selectivity interaction (Kinase panel (Invitrogen)) EUB0000639a NTRK3; conditions: at 200 nM
NT-3 growth factor receptor, sequence (Q16288 32-839 limits assumed): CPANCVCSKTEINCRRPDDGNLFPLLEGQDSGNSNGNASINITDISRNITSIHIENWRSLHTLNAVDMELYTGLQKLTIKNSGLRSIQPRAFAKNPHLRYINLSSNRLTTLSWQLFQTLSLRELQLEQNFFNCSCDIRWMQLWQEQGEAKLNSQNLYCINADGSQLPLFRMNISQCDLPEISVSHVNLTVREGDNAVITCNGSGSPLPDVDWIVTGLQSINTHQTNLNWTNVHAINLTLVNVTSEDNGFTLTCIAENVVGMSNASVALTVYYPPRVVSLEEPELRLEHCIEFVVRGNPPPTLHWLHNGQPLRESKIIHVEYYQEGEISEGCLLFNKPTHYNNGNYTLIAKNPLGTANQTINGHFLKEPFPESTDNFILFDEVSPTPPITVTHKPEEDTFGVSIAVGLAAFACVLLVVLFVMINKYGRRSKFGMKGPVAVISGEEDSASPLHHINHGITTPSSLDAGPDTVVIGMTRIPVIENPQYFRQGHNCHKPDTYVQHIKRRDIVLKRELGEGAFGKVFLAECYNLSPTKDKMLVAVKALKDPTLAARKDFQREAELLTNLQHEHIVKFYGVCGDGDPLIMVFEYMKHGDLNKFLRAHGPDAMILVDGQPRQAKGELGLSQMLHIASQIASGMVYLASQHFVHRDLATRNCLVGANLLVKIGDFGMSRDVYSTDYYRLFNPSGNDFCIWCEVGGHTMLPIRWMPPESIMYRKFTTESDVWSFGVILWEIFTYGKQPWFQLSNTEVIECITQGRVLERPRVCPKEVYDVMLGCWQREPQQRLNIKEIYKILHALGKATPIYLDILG

[4] = target: T2, Inhibitor of nuclear factor kappa-B kinase subunit epsilon (Homo sapiens) (UniProt Q14164); experiment: Selectivity interaction (KinomeScan (DiscoverX)) EUB0000695a IKBKE; conditions: at 100 nM
T2 sequence (whole entry): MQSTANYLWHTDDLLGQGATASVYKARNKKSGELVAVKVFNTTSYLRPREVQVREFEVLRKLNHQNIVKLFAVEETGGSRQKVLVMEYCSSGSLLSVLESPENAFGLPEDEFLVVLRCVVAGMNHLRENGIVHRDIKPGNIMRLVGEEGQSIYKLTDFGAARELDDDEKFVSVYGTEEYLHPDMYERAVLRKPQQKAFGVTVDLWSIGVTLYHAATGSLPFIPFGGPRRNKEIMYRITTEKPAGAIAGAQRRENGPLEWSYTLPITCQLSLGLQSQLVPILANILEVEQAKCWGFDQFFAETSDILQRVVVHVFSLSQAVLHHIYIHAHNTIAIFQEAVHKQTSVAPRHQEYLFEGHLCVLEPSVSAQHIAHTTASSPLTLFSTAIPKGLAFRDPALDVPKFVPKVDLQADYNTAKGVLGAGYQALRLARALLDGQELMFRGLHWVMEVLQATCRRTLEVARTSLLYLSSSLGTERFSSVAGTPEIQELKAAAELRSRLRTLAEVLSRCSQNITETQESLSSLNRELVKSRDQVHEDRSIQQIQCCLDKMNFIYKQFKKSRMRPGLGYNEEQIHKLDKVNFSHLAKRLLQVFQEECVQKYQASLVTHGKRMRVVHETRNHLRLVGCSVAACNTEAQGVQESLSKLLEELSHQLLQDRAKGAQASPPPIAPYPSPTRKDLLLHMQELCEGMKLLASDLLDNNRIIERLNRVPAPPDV

[5] = target: Sodium channel protein type 2 subunit alpha (Homo sapiens) (UniProt Q99250); experiment: Selectivity interaction (Panel of non-epigenetic targets (kinases, GPCRs, ion channels, and transporters, Eurofins) ) EUB0000271b SCN2A; conditions: at 1 µM
Sodium channel protein type 2 subunit alpha (Homo sapiens), sequence (Q99250 whole entry, looked up, canonical isoform): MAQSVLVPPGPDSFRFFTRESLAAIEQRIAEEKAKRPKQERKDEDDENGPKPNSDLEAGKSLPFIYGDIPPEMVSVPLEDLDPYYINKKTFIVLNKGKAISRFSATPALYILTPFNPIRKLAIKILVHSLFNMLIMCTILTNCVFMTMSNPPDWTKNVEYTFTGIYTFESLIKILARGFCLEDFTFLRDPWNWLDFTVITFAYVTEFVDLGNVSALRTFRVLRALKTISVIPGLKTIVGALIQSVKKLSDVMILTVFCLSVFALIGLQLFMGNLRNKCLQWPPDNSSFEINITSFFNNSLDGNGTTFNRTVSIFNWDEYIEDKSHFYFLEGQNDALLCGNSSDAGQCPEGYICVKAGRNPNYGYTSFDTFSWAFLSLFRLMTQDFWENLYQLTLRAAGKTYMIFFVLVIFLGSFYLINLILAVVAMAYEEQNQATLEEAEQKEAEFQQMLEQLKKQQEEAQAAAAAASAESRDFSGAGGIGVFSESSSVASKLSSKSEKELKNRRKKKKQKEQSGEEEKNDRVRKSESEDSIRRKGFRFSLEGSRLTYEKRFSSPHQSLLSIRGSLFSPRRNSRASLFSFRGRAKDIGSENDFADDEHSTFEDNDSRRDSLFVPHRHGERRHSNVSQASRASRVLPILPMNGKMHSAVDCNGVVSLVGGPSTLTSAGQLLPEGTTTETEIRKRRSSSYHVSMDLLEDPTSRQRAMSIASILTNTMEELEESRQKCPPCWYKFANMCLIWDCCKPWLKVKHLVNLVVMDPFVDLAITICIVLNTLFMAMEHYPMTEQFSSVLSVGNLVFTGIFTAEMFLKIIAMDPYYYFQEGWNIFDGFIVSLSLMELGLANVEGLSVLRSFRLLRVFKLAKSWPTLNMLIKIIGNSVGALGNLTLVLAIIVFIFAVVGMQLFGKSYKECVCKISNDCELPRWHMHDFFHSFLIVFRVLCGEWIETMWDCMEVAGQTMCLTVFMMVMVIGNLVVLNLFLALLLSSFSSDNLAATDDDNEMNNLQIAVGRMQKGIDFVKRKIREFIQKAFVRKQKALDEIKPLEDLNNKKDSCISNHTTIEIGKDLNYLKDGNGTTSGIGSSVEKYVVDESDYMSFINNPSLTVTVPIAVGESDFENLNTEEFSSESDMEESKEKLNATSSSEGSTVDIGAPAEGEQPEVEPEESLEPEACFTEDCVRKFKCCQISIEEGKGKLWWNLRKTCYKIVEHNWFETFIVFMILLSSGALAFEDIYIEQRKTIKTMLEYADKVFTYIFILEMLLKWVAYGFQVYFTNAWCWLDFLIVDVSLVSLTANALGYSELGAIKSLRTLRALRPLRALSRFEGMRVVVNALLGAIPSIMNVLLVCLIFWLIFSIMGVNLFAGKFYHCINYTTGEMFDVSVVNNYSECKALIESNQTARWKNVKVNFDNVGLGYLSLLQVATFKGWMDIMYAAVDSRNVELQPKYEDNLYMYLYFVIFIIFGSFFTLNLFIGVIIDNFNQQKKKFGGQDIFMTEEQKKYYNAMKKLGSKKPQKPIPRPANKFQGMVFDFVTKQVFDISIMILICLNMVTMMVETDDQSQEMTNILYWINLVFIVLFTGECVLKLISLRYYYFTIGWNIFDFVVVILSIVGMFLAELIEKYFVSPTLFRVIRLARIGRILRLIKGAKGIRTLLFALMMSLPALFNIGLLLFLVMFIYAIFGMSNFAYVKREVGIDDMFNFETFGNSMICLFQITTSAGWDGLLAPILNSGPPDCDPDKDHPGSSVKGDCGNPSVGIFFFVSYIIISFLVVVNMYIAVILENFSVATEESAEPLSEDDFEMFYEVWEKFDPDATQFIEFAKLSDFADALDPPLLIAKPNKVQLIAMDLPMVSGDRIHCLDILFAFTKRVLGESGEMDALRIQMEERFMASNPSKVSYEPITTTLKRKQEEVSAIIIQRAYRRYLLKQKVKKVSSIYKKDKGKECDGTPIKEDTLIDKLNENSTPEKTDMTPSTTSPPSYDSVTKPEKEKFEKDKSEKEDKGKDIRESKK

[6] = target: Casein kinase I isoform gamma-2 (Homo sapiens) (UniProt P78368); conditions: at 10 µM
Casein kinase I isoform gamma-2 (Homo sapiens), sequence (P78368 whole entry, looked up, canonical isoform): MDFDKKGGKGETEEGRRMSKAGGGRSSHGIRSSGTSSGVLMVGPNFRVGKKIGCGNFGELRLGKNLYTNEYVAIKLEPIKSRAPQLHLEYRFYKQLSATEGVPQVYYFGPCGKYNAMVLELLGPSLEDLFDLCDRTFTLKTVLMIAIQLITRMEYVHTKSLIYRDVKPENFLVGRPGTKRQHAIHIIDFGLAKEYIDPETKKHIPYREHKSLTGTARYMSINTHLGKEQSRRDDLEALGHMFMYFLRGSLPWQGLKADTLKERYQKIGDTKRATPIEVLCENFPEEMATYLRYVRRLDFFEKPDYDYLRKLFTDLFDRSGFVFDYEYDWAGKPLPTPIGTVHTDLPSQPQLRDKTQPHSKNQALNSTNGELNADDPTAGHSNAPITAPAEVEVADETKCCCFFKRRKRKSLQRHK

[7] = target: T3, cAMP-dependent protein kinase catalytic subunit PRKX (Homo sapiens) (UniProt P51817); experiment: Selectivity interaction (KinomeScan (DiscoverX)) EUB0001079a PRKX; conditions: at 1 µM
T3 sequence (whole entry): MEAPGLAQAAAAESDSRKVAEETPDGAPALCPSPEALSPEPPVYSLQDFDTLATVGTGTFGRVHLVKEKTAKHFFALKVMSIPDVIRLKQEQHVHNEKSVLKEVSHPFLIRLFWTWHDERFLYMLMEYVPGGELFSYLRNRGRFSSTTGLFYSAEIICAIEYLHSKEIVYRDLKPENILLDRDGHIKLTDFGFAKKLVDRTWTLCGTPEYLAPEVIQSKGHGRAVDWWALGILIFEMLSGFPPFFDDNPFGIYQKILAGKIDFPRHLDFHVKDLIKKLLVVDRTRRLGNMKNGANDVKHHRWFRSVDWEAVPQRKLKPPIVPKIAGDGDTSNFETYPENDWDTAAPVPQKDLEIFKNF

[8] = target: Calcium/calmodulin-dependent protein kinase type 1D (Homo sapiens) (UniProt Q8IU85); experiment: Selectivity interaction (KinomeScan (DiscoverX)) EUB0000045b CAMK1D
Calcium/calmodulin-dependent protein kinase type 1D (Homo sapiens), sequence (Q8IU85 whole entry, looked up): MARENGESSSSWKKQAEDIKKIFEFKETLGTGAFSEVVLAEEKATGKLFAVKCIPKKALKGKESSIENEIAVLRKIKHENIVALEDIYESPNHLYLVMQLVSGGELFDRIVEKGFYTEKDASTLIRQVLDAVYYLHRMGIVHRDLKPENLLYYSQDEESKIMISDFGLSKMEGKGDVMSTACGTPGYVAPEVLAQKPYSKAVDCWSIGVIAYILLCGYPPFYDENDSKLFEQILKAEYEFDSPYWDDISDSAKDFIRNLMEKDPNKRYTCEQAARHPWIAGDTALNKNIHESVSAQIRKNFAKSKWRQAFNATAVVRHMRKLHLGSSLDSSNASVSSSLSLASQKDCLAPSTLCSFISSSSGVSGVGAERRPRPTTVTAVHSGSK

[9] = target: Serine/threonine-protein kinase 3 (Homo sapiens, UniProt Q13188); experiment: Selectivity interaction (ADP-Glo kinase assay) EUB0001619a STK3
Serine/threonine-protein kinase 3, sequence (Q13188 whole entry): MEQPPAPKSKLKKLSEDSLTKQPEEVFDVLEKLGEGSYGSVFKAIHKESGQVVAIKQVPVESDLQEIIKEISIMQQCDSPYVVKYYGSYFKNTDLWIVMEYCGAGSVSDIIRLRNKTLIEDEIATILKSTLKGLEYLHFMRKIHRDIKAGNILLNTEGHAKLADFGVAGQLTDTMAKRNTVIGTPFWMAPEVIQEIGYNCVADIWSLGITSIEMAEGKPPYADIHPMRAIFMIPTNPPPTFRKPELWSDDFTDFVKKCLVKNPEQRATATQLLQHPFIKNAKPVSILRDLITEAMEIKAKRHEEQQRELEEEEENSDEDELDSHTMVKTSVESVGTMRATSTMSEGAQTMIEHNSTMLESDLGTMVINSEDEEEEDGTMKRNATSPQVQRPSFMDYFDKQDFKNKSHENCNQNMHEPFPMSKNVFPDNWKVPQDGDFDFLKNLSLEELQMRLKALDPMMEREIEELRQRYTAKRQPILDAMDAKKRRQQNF

[10] = system: Tyrosine-protein kinase ABL1 (Homo sapiens), P00519 [T315I]; experiment: (§1) Selectivity interaction (SelectScreen profiling (Invitrogen)) EUB0000607a ABL1; conditions: at 2 µM
[11] = system: Tyrosine-protein kinase ABL1 (Homo sapiens), P00519 [Y253F]; experiment: as §1; conditions: at 2 µM
[12] = target: Tyrosine-protein kinase ABL1 (Homo sapiens, UniProt P00519); experiment: as §1; conditions: at 2 µM
[13] = target: Dual specificity protein kinase CLK3 (Homo sapiens, UniProt P49761); experiment: Selectivity interaction (KinomeScan (DiscoverX)) EUB0000607a CLK3; conditions: at 10 µM
Dual specificity protein kinase CLK3, sequence (P49761 whole entry, looked up, canonical isoform): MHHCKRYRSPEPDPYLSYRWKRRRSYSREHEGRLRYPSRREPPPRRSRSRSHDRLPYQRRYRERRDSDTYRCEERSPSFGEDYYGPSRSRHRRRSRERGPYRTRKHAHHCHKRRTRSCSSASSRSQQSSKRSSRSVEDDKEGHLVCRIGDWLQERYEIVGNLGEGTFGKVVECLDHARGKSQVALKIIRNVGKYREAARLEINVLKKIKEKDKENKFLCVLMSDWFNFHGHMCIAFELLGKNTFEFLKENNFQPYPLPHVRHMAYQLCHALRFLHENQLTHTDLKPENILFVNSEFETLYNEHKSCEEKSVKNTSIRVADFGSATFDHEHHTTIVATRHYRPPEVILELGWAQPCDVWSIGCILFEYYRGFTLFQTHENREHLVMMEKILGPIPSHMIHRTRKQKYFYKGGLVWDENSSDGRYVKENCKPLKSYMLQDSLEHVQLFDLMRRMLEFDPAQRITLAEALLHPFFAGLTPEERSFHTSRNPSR

[14] = target: Casein kinase I isoform alpha (Homo sapiens, UniProt P48729); experiment: Selectivity interaction (SelectScreen profiling (Invitrogen)) EUB0000607a CSNK1A1; conditions: at 2 µM
Casein kinase I isoform alpha, sequence (P48729 2-337 limits assumed): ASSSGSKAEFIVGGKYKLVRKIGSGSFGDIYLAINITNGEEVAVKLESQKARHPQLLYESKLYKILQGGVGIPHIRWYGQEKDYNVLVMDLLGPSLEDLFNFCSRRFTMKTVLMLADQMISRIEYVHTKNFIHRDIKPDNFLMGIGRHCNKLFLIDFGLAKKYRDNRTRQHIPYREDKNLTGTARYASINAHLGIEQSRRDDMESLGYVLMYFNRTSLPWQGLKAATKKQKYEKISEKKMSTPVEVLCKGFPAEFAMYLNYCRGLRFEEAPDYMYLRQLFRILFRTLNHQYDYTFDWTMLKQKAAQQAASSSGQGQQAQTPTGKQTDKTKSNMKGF

[15] = target: T4, Serine/threonine-protein kinase ULK3 (Homo sapiens) (UniProt Q6PHR2); experiment: Selectivity interaction (KinomeScan (DiscoverX)) EUB0000607a ULK3; conditions: at 10 µM
T4 sequence (whole entry): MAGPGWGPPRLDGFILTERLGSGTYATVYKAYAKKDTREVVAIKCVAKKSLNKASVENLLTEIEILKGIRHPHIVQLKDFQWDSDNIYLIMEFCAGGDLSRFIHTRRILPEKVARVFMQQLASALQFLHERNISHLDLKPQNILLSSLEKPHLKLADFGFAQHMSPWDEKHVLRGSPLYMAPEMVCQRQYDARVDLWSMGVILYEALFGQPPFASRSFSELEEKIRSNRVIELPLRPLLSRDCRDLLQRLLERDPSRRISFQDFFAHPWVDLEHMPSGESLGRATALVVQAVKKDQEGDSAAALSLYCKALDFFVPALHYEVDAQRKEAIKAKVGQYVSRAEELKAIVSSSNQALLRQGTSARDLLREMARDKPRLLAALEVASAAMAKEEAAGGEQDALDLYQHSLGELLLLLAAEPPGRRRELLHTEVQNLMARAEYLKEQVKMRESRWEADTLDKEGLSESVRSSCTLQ

CN(C)C/C=C/C(=O)Nc1ccc(C(=O)N2CCCC(Nc3ncc(Cl)c(-c4c[nH]c5ccccc45)n3)C2)cc1 (stereo unspecified)
% of control [1]: 38%

CC[C@@H]1[C@H](F)C(=O)N[C@@H]1COc1nccc2cc(C(N)=O)c(OC)cc12 [ZIMLOVISERTIB]
% of inhibition [2]: -5.8% | % of inhibition [3]: 21.9%

Cc1cc(F)c(C(=O)Nc2cccc(-c3nncn3C(C)C)n2)cc1-n1cnc(C2CC2)c1
% of control [4]: 100%

Cc1cc(C)cc([C@@H]2c3cc(C)ccc3NC(=O)CN2C(=O)c2ccc(Br)s2)c1
% of inhibition [5]: -22%

COCC(=O)NC/C=C/c1ccc2ncnc(Nc3ccc(Oc4ccc(C)nc4)c(C)c3)c2c1 [CP-724714]
% of control [6]: 100%

Nc1cnc(N2CCc3cc(S(=O)(=O)Nc4c(F)cc(Cl)cc4F)cc(N4CCCC4=O)c32)nc1 [TP-020n]
% of control [7]: 99%

C=CC(=O)Nc1cc(-n2c(=O)ccc3cnc4ccc(-c5ccc(NS(C)(=O)=O)cc5)cc4c32)ccc1C
% of control ([8]; at 1 µM): 100% | % of control ([8]; at 10 µM): 77%

N#Cc1cccc(-c2c[nH]c3ncnc(N4CCOCC4)c23)c1
IC50 [9]: 76 nM

CNC(=O)Nc1ccc(-c2nc(N3CC4CCC(C3)O4)c3cnn(C4CCC5(CC4)OCCO5)c3n2)cc1
% of inhibition [10]: 0% | % of inhibition [11]: 0% | % of inhibition [12]: 4% | % of control [13]: 31% | % of inhibition [14]: 2% | % of control [15]: 92%
